Measurements taken from patent publication US6355619B1, “Peptide tumor cell growth inhibitors” (Board of Regents, The University of Texas System, priority 1996, dated 2002).
pEC50: −log10 of the molar value.

Assays:
A375SM melanoma cells = assay: Tumor cell growth, A375SM; assay type: cell-based
[1] = tested on: IL-8-induced neutrophil chemotaxis; assay: Neutrophil chemotaxis stimulated by IL-8 (leading front, Boyden chamber); assay type: cell-based, human
Experimental: FIG. 7. The Effect of Ac-RRWWCR-NH2 (SEQ ID NO:1) on Neutrophil Chemotaxis. Chemotaxis was performed in the presence of increasing concentration of Ac-RRWWCR-NH2 (SEQ ID NO:1) in both upper and lower chamber. Stimulants added to lower chamber were 10 nM IL-8 (●), 10 nM fMLP (▪), or media alone (◯) as control. Analysis of variance was used for multiple comparison.
Chemotaxis was performed using the leading front method as described by Zigmond and Hirsh (1973). IL-8 or controls were placed in the lower well of a Boyden chamber. A five micron pore size, 100 μm. thick cellulose nitrate filter (Sartorius Filter,. Inc., San Francisco, Calif.) was placed on the surface and the chamber was then assembled. A 200 μl aliquot of the neutrophil preparation (1×10^6 cells/ml) in RPMI-1640 media containing 1% BSA was added to the top of the filter and incubated at 37° C. for 30 min. The filter was then fixed, stained and mounted on a glass microscope slide. The leading front was determined by the position of the leading two cells. The distance that the leading two cells had moved through the filter was measured for six fields on each filter. The measurements were made with four filters for each set of conditions.

[2] = tested on: IL-8-stimulated neutrophil enzyme release; assay: β-glucuronidase release from neutrophils stimulated by IL-8; assay type: cell-based, human
Experimental: FIG. 8. The Effect of Ac-RRWWCR-NH2 (SEQ ID NO:1) on β-glucuronidase Release. Neutrophils pretreated with cytochalasin B were incubated with 100 nM IL-8 (●), 100 nM fMLP (▪), 100 nM C5a (_) or 100 nM leukotriene B4 ? or without any stimulant (◯) in the presence of increasing concentration of Ac-RRWWCR-NH2 (SEQ ID NO:1) for 30 min at 37° C. β-glucuronidase activity of supernatants were measured using phenolphthalein-glucuronic acid as substrate. Analysis of variance was used for multiple comparison.
Neutrophil enzyme release was studied by a modification of the method of Goldstein and colleagues (Goldstein et al., 1973). Cytochalasin B (Sigma Chemical Co.) was stored in dimethyl sulfoxide at a concentration of 5 mg/ml and was diluted to a concentration of 50 μg/ml in Hank's Balanced Salt Solution (HBSS) immediately before use. Cytochalasin B, 200 μl, was added to 1 ml of suspension of neutrophils, 6.25×10^6 cells/ml in HBSS, to achieve a final cytochalasin B concentration of […]. The solution was then incubated in 96 well plates at room temperature for 10 min. The stimulant, 100 μl, was added, and this cell suspension was incubated for 30 min at 37° C. The plates were centrifuged and 100 μl of supernatant was removed. […] After 16 hr incubation at 37° C., 200 μl of 0.2 M Glycine in 0.2 M NaCl, pH10.4 was added to each well and OD540 was measured as the enzyme activity.

[3] = molecular target: T1, C5a binding to human neutrophils (Homo sapiens, UniProt P21730); assay: Binding of 125I-C5a to human neutrophils; conditions: 100 μM peptide; 0.25 nM 125I-labeled C5a
T1 construct: endogenous in cells; host or cells: human blood neutrophils
Text: To examine the specificity of Ac-RRWWCR-NH2 (SEQ ID NO:1) on ligand-receptor binding, the inventors tested whether the peptide reduced the binding of human ^125I-C5a or ^3H-leukotriene B4 to human neutrophils.
Recombinant human fifth component of complement (C5a) (Sigma Chemical Co., St. Louis, Mo.) was radioiodinated enzymatically using Enzymobead (Bio Rad, Richmond, Calif.). Tritiated leukotriene B4 was purchased from Du Pont Co., Wilmington, Del. Binding assays for C5a and leukotriene B4 were performed as described for IL-8 binding in Example I, except that the buffers used were PBS containing 1 mM CaCl2, 0.5 mM MgCl2, 0.5% BSA, and HBSS containing 0.1% ovulabumin and 10 mM HEPES (pH7.3), respectively, as previously described (Braunwalder et al., 1992; Sherman et al., 1988). The radioactivity was measured with liquid scintillation counter for the leukotriene B4 assay. The binding of both ligands were saturable and inhibited by the non-labeled agonists in dose dependent manners.

[4] = molecular target: T2, MIP2β binding to human neutrophils (Homo sapiens, UniProt P25025); assay: Binding of radioiodinated MIP2β to human neutrophils; conditions: 1 nM MIP2β
T2 construct: endogenous in cells; host or cells: human neutrophils
Experimental: FIG. 10. Ac-RRWWCX (SEQ ID NO:23) Inhibits Binding of GRO and MIP2β to human neutrophils. Radioiodinated MIP2β and GRO/MGSA were mixed with various concentration of Ac-RRWWCR-NH2 and incubated at room temperature for 15 min. Neutrophil suspension (1×10^6 cells in 160 μl PBS containing 0.1% BSA) was added to 40 μl of the mixture and incubated for 90 min on ice. The radioactivity bound to the cells was separated from free radioactivity by centrifugation through an oil layer. The % binding inhibition was calculated as follows: [formula]
MIP2β and GRO/MGSA were radioiodinated using Bolten Hunter reagent. The radioiodinated components were mixed with various concentration of the Ac-RRWWCX-NH2 (SEQ ID NO:23) peptide and incubated at room temperature for 15 min. Neutrophil suspension (1×10^6 cells in 160 μl PBS containing 0.1% BSA) was added to 40 μl of the mixture and incubated for 90 min on ice. The radioactivity bound to the cells was separated from free radioactivity by centrifugation through an oil layer. The bound radioactivity is an indication of bound CXC intercrine peptide. The % binding inhibition in the presence of Ac-RRWWCX-NH2 (SEQ ID NO:23) was calculated as follows: [formula]
where B is bound radioactivity in the presence of the peptide, T is bound radioactivity in the absence of the peptide, and NSP is bound radioactivity in the presence of excess nonlabeled ligand.

[5] = tested on: A549 (adenocarcinoma of lung); assay: Growth of A549, cell count; assay type: cell-based; conditions: A549, 7 days, media replaced every 24 hours
Experimental: FIG. 20 The effect of Antileukinate on growth of A549 (adenocarcinoma of lung). A549 cells were plated at a density of 5×10^3 cells in 24-well plate with growth medium. After the cells adhered to the plate, supernatants were aspirated and culture media containing various concentrations of Antileukinate were added to the wells. The media was replaced every 24 hours and the cells were cultured for 7 days. After incubation, cells were detatched with trypsin-EDTA and the cell number was counted using a hemocytometer. Cell number was decreased in a dose-dependent manner and there are significant differences from control at concentrations greater than, or equal to 50 μM of Antileukinate (p<0.05).

T2 sequence (P25025 whole entry): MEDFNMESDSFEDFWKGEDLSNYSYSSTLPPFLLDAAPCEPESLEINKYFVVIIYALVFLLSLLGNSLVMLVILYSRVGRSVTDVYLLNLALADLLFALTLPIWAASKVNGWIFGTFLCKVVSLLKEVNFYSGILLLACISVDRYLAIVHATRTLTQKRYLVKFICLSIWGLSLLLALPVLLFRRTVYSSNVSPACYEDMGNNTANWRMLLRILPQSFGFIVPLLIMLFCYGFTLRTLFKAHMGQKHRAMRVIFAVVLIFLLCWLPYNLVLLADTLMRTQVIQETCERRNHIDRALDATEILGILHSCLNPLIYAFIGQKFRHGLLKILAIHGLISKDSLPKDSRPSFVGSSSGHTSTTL
T1 sequence (P21730 whole entry): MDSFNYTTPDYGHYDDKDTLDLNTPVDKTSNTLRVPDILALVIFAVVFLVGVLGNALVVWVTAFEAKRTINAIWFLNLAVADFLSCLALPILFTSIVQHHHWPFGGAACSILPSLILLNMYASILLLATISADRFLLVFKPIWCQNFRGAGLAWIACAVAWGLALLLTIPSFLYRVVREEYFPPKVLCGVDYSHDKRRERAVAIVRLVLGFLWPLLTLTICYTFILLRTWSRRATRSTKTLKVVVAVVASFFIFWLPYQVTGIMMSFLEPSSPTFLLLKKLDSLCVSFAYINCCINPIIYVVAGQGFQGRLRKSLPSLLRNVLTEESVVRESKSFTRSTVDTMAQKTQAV

RRWWCR [Ac-RRWWCR-NH2]
effect on cell growth (A375SM melanoma cells): suppresses the growth
peptide concentration significantly suppressing chemotaxis ([1]; chemotaxis induced by 10 nM IL-8): 50 lM
peptide concentration significantly inhibiting chemotaxis ([1]; neutrophils stimulated with 10 nM IL-8): 50 µM
pEC50 ([2]; read-out: EC50, inhibition of enzyme release from neutrophils stimulated by IL-8): 6.10
peptide concentration inhibiting β-glucuronidase release ([2]; stimulated by 100 nM IL-8): 2 µM
effect on binding of C5a to neutrophils [3]: did not affect the binding
effect on binding of MIP2β to neutrophils ([4]; listed as Ac-RRWWCX-NH2): effectively suppress the binding
effect on binding of MIP2β to neutrophils ([4]; listed as Antileukinate): suppressed the binding
concentrations with significant difference in cell number from control (p<0.05) [5]: ≥ 50 µM
